Reference: patent EP1099438A2, “Use of APO B secretion/MTP inhibitors” (Pfizer Products Inc., priority 1999, dated 2001)

System: food intake
Test: food intake reduction determination protocol in dogs
Type: in vivo
Details: male beagles, oral gavage, dosing solution 0.5 mg/mL at 1 mL per kg body weight, single dose on Days 0 and 5-12; 24 hour food consumption versus amount consumed prior to Day 0
Text: Healthy, young adult (1-2 years of age) male beagles (Marshall Farms, North Rose, New York, NY 14516) weighing 11.45 - 12.45 kg at the start of the treatment period were employed as test subjects. The animals were housed individually in standard caging meeting or exceeding the USDA regulations (U.S. Department of Agriculture, Animal Welfare, Final Rules. 9 C.F.R. Parts 1-3, 1995).
The test compound was provided as a water-soluble powder. The dosing solution, administered by oral gavage, was provided employing a 0.025 M citrate buffer (approx. pH = 3) prepared using anhydrous citric acid (0.4 g/mL) and anhydrous sodium citrate (0.1 g/mL) as the test vehicle. The dosing solution was prepared at 0.5 mg/mL activity so that 1 mL was delivered per kg body weight. Following a fourteen day acclimation period (designated as Days -14 to -1), during which time the test animals were evaluated for certain criteria including determination of body weight and physical examinations, a sixteen day evaluation study was effected.
The study consisted of one group of animals containing five dogs. On Days 0 and 5-12, each dog received the dosing solution administered as a single dose at Time 0 on each dosing day via a feeding tube. […]
Reduction in food intake was quantitated by weighing individual food bowls each day prior to feeding and at the end of each 24 hour consumption period. […]

SMILES | reduced food intake in dogs [%]
CC(=O)NCCN1CCc2cc(NC(=O)c3ccccc3-c3ccc(C(F)(F)F)cc3)ccc2C1 [4'-trifluoromethyl-biphenyl-2-carboxylic acid-[2-(2-acetylaminoethyl)-1,2,3,4-tetrahydroisoquinolin-6-yl amide] | 58
CCCCN1CCc2cc(NC(=O)c3ccccc3-c3ccc(C(F)(F)F)cc3)ccc2C1 [4'-trifluoromethyl-biphenyl-2-carboxylic acid-(2-butyl-1,2,3,4-tetrahydroisoquinolin-6-yl)-amide] | 30
